Measurements published in patent US6372719B1, “ανβ3 integrin antagonists in combination with chemotherapeutic agents” (priority 1998, dated 2002).

Experiments:
Rice Leydig tumor cells = experiment: Tumor growth inhibition, Rice Leydig tumor in SCID mice
Procedure: Tumor cells for implantation were taken from cells either grown in tissue culture (Leydig, M21) or serially passaged as tumors in mice and prepared as tumor brei (LLC, PC-3) by methodology known in the art. Mice were injected subcutaneously in the proximal dorsal midline with 5×10^6 tumor cells and administration of test αvβ3 integrin antagonist compound was initiated the evening of the same day either prior to the chemotherapeutic agent, delayed and on the same day as the chemotherapeutic agent or delayed and following the chemotherapeutic agent. Tumor volumes were measured at intervals over the course of the experiments. Tumors were measured with a vernier caliper and volumes were determined using the formula for the volume of a cylinder: tumor volume=width^2×length×0.52. […] On the final day of the experiment, tumors were dissected free and weighed. […] The data are expressed as the mean +/− SEM. Student's and Mann-Whitney tests were used to assess differences between means or medians using the InStat software package.

LLC tumor = experiment: Tumor growth inhibition, LLC tumor in mice
Procedure: Tumor cells for implantation were taken from cells either grown in tissue culture (Leydig, M21) or serially passaged as tumors in mice and prepared as tumor brei (LLC, PC-3) by methodology known in the art. Mice were injected subcutaneously in the proximal dorsal midline with 5×10^6 tumor cells and administration of test αvβ3 integrin antagonist compound was initiated the evening of the same day either prior to the chemotherapeutic agent, delayed and on the same day as the chemotherapeutic agent or delayed and following the chemotherapeutic agent. Tumor volumes were measured at intervals over the course of the experiments. Tumors were measured with a vernier caliper and volumes were determined using the formula for the volume of a cylinder: tumor volume=width^2×length×0.52. Blood was routinely drawn, for serum calcium determination and plasma drug concentration, 6 hours post-dosing on day 4 or 5 and again 12 hours post-dosing on the day of sacrifice. On the final day of the experiment, tumors were dissected free and weighed. Calcium concentrations of serum samples were determined calorimetrically using a clinical diagnostic kit. The data are expressed as the mean +/− SEM. Student's and Mann-Whitney tests were used to assess differences between means or medians using the InStat software package.

M21 human melanoma = experiment: Tumor growth inhibition, M21 human melanoma in mice; type: in vivo, SCID mice; conditions: cyclophosphamide 150 mg/kg ip on days 14, 16 and 18
Procedure: In this model, cyclophosphamide was administered (150 mg/kg;ip) on days 14, 16 and 18, and XII (10 mg/kg, BID, PO) was administered continuously after the chemotherapeutic beginning on day 21.

[1] = cisplatin 10 mg/kg ip day 5, XII at 10 mg/kg

| Compound | Tumor growth inhibition (Rice Leydig tumor cells; cisplatin at maximum tolerated dose, XII 10 mg/kg PO, compared to control-treated mice) | Effect on survival time (Rice Leydig tumor cells; tumor bearing SCID mice) | Median survival time (LLC tumor; [1]) [days] | Time to develop a tumor >500 mm^3 (LLC tumor; [1]) [days] | Effect on growth of the LLC tumor (LLC tumor; cisplatin single ip dose 10 mg/kg on day 5, XII 1 and 10 mg/kg, oral, BID from day 1) | Inhibition of growth of M21 tumors (M21 human melanoma) |
| --- | --- | --- | --- | --- | --- | --- |
| N.N.[Cl][Pt][Cl] [Cisplatin, cisplatin] | approximately 50% | little effect | 33 | 22.4 | significantly retarded |  |
| O=P1(N(CCCl)CCCl)NCCCO1 (stereo not drawn) [Cyclophosphamide, cyclophosphamide] |  |  |  |  |  | significantly inhibited |
